# Assay results as given in ChEMBL document CHEMBL3217615, “Novel 3,5-bis(arylidiene)-4-piperidone based monocarbonyl analogs of curcumin: anticancer activity evaluation and mode of action study” (2014).
# Assays:
# Format in all cases: functional
# [1] = Growth inhibition of human NCI-ADR-RES cells assessed as cell growth at 10^-5 M after 48 hrs by sulforhodamine B assay; conditions: read-out: Activity
# [2] = Growth inhibition of human OVCAR8 cells assessed as cell growth at 10^-5 M after 48 hrs by sulforhodamine B assay; conditions: OVCAR-8, 48 h, read-out: Activity
# [3] = Growth inhibition of human OVCAR4 cells assessed as cell growth at 10^-5 M after 48 hrs by sulforhodamine B assay; conditions: OVCAR-4, 48 h, read-out: Activity
# [4] = Growth inhibition of human OVCAR5 cells assessed as cell growth at 10^-5 M after 48 hrs by sulforhodamine B assay; conditions: OVCAR-5, 48 h, read-out: Activity
# [5] = Growth inhibition of human OVCAR3 cells assessed as cell growth at 10^-5 M after 48 hrs by sulforhodamine B assay; conditions: OVCAR-3, 48 h, read-out: Activity
# IGROV-1 = experiment: Growth inhibition of human IGROV1 cells assessed as cell growth at 10^-5 M after 48 hrs by sulforhodamine B assay; conditions: IGROV-1, 48 h, read-out: Activity
# [6] = Growth inhibition of human UACC62 cells assessed as cell growth at 10^-5 M after 48 hrs by sulforhodamine B assay; conditions: UACC-62, 48 h, read-out: Activity
# SK-MEL-28 = experiment: Growth inhibition of human SK-MEL-28 cells assessed as cell growth at 10^-5 M after 48 hrs by sulforhodamine B assay; conditions: SK-MEL-28, 48 h, read-out: Activity
# M14 = experiment: Growth inhibition of human M14 cells assessed as cell growth at 10^-5 M after 48 hrs by sulforhodamine B assay; conditions: M14, 48 h, read-out: Activity
# Malme-3M = experiment: Growth inhibition of human MALME-3M cells assessed as cell growth at 10^-5 M after 48 hrs by sulforhodamine B assay; conditions: read-out: Activity
# [7] = Growth inhibition of human LOXIMVI cells assessed as cell growth at 10^-5 M after 48 hrs by sulforhodamine B assay; conditions: LOX IMVI, read-out: Activity
# SNB-19 = experiment: Growth inhibition of human SNB19 cells assessed as cell growth at 10^-5 M after 48 hrs by sulforhodamine B assay; conditions: SNB-19, 48 h, read-out: Activity
# SNB-75 = experiment: Growth inhibition of human SNB75 cells assessed as cell growth at 10^-5 M after 48 hrs by sulforhodamine B assay; conditions: SNB-75, 48 h, read-out: Activity
# SF-268 = experiment: Growth inhibition of human SF268 cells assessed as cell growth at 10^-5 M after 48 hrs by sulforhodamine B assay; conditions: SF-268, 48 h, read-out: Activity
# SW-620 = experiment: Growth inhibition of human SW620 cells assessed as cell growth at 10^-5 M after 48 hrs by sulforhodamine B assay; conditions: SW-620, 48 h, read-out: Activity
# KM12 = experiment: Growth inhibition of human KM12 cells assessed as cell growth at 10^-5 M after 48 hrs by sulforhodamine B assay; conditions: KM12, 48 h, read-out: Activity
# HT-29 = experiment: Growth inhibition of human HT-29 cells assessed as cell growth at 10^-5 M after 48 hrs by sulforhodamine B assay; conditions: HT-29, 48 h, read-out: Activity
# [8] = Growth inhibition of human HCT15 cells assessed as cell growth at 10^-5 M after 48 hrs by sulforhodamine B assay; conditions: HCT-15, 48 h, read-out: Activity
# COLO 205 = experiment: Growth inhibition of human COLO205 cells assessed as cell growth at 10^-5 M after 48 hrs by sulforhodamine B assay; conditions: COLO 205, 48 h, read-out: Activity
# NCI-H522 = experiment: Growth inhibition of human NCI-H522 cells assessed as cell growth at 10^-5 M after 48 hrs by sulforhodamine B assay; conditions: NCI-H522, 48 h, read-out: Activity
# NCI-H460 = experiment: Growth inhibition of human NCI-H460 cells assessed as cell growth at 10^-5 M after 48 hrs by sulforhodamine B assay; conditions: NCI-H460, 48 h, read-out: Activity
# NCI-H322M = experiment: Growth inhibition of human NCI-H322M cells assessed as cell growth at 10^-5 M after 48 hrs by sulforhodamine B assay; conditions: read-out: Activity
# NCI-H23 = experiment: Growth inhibition of human NCI-H23 cells assessed as cell growth at 10^-5 M after 48 hrs by sulforhodamine B assay; conditions: NCI-H23, 48 h, read-out: Activity
# HOP-62 = experiment: Growth inhibition of human HOP62 cells assessed as cell growth at 10^-5 M after 48 hrs by sulforhodamine B assay; conditions: HOP-62, 48 h, read-out: Activity
# SR = experiment: Growth inhibition of human SR cells assessed as cell growth at 10^-5 M after 48 hrs by sulforhodamine B assay; conditions: read-out: Activity
# [9] = Growth inhibition of human MOLT4 cells assessed as cell growth at 10^-5 M after 48 hrs by sulforhodamine B assay; conditions: MOLT-4, 48 h, read-out: Activity
# HL-60(TB) = experiment: Growth inhibition of human HL-60(TB) cells assessed as cell growth at 10^-5 M after 48 hrs by sulforhodamine B assay; conditions: HL-60, 48 h, read-out: Activity
# K562 = experiment: Growth inhibition of human K562 cells assessed as cell growth at 10^-5 M after 48 hrs by sulforhodamine B assay; conditions: K562, 48 h, read-out: Activity
# CCRF-CEM = experiment: Growth inhibition of human CCRF-CEM cells assessed as cell growth at 10^-5 M after 48 hrs by sulforhodamine B assay; conditions: read-out: Activity
# MDA-MB-468 = experiment: Growth inhibition of human MDA-MB-468 cells assessed as cell growth at 10^-5 M after 48 hrs by sulforhodamine B assay; conditions: MDA-MB-468, 48 h, read-out: Activity
# [10] = Growth inhibition of human Hs 578T cells assessed as cell growth at 10^-5 M after 48 hrs by sulforhodamine B assay; conditions: read-out: Activity
# MCF7 = experiment: Growth inhibition of human MCF7 cells assessed as cell growth at 10^-5 M after 48 hrs by sulforhodamine B assay; conditions: MCF7, 48 h, read-out: Activity
# PC-3 = experiment: Growth inhibition of human PC3 cells assessed as cell growth at 10^-5 M after 48 hrs by sulforhodamine B assay; conditions: PC-3, 48 h, read-out: Activity
# SN12C = experiment: Growth inhibition of human SN12C cells assessed as cell growth at 10^-5 M after 48 hrs by sulforhodamine B assay; conditions: read-out: Activity
# [11] = Growth inhibition of human RXF393 cells assessed as cell growth at 10^-5 M after 48 hrs by sulforhodamine B assay; conditions: RXF 393, 48 h, read-out: Activity
# CAKI-1 = experiment: Growth inhibition of human CAKI-1 cells assessed as cell growth at 10^-5 M after 48 hrs by sulforhodamine B assay; conditions: CAKI-1, 48 h, read-out: Activity
# ACHN = experiment: Growth inhibition of human ACHN cells assessed as cell growth at 10^-5 M after 48 hrs by sulforhodamine B assay; conditions: read-out: Activity
SMILES,growth at 10 µM [1] [%],growth at 10 µM [2] [%],growth at 10 µM [3] [%],growth at 10 µM [4] [%],growth at 10 µM [5] [%],growth at 10 µM (IGROV-1) [%],growth at 10 µM [6] [%],growth at 10 µM (SK-MEL-28) [%],growth at 10 µM (M14) [%],growth at 10 µM (Malme-3M) [%],growth at 10 µM [7] [%],growth at 10 µM (SNB-19) [%],growth at 10 µM (SNB-75) [%],growth at 10 µM (SF-268) [%],growth at 10 µM (SW-620) [%],growth at 10 µM (KM12) [%],growth at 10 µM (HT-29) [%],growth at 10 µM [8] [%],growth at 10 µM (COLO 205) [%],growth at 10 µM (NCI-H522) [%],further results
O=C1/C(=C/c2c(Cl)cccc2Cl)CN(S(=O)(=O)c2ccccc2)C/C1=C\c1c(Cl)cccc1Cl,81.6,77.3,84.6,103,73.9,100,60.5,88.1,66.3,90,78,92.7,66.2,78.6,89.4,74.8,71.5,62,92.4,72.5,growth at 10 µM (NCI-H460): 74%; growth at 10 µM (NCI-H322M): 85%; growth at 10 µM (NCI-H23): 82.6%; growth at 10 µM (HOP-62): 100%; growth at 10 µM (SR): 52.7%; growth at 10 µM [9]: 52.8%; growth at 10 µM (HL-60(TB)): 81%; growth at 10 µM (K562): 77.8%; growth at 10 µM (CCRF-CEM): 42.4%; growth at 10 µM (MDA-MB-468): 80.4%; growth at 10 µM [10]: 93%; growth at 10 µM (MCF7): 48.5%; growth at 10 µM (PC-3): 57.5%; growth at 10 µM (SN12C): 86.3%; growth at 10 µM [11]: 95.3%; growth at 10 µM (CAKI-1): 136%; growth at 10 µM (ACHN): 76.3%
Cc1ccc(S(=O)(=O)N2C/C(=C\c3c(Cl)cccc3Cl)C(=O)/C(=C/c3c(Cl)cccc3Cl)C2)cc1,90.9,79.6,85.3,103,84,104,69.5,101,79.1,89,79.4,95.7,65.2,83.6,101,88.7,83.7,80.7,110,88.6,growth at 10 µM (NCI-H460): 83.3%; growth at 10 µM (NCI-H322M): 93.5%; growth at 10 µM (NCI-H23): 97.7%; growth at 10 µM (HOP-62): 94.5%; growth at 10 µM (SR): 71.1%; growth at 10 µM [9]: 68.7%; growth at 10 µM (HL-60(TB)): 94.5%; growth at 10 µM (K562): 81.6%; growth at 10 µM (CCRF-CEM): 72.7%; growth at 10 µM (MDA-MB-468): 90.4%; growth at 10 µM [10]: 101%; growth at 10 µM (MCF7): 64.5%; growth at 10 µM (PC-3): 67.3%; growth at 10 µM (SN12C): 85.6%; growth at 10 µM [11]: 101%; growth at 10 µM (CAKI-1): 61.6%; growth at 10 µM (ACHN): 84.2%
O=C1/C(=C/c2ccc(Cl)cc2Cl)CN(S(=O)(=O)c2ccccc2)C/C1=C\c1ccc(Cl)cc1Cl,20.5,-9,8,-12,-67,-39,-79,27,17,-21,-58.7,-39.1,-6,4.96,-15.2,-57.2,-27.5,-23,-38,-51,growth at 10 µM (NCI-H460): -60%; growth at 10 µM (NCI-H322M): -29%; growth at 10 µM (NCI-H23): -37.6%; growth at 10 µM (HOP-62): -2.25%; growth at 10 µM (SR): -11.6%; growth at 10 µM [9]: -2%; growth at 10 µM (HL-60(TB)): -24%; growth at 10 µM (K562): 0.79%; growth at 10 µM (CCRF-CEM): -14%; growth at 10 µM (MDA-MB-468): -38%; growth at 10 µM (MCF7): 12%; growth at 10 µM (PC-3): -25%; growth at 10 µM (SN12C): -47%; growth at 10 µM [11]: -87%; growth at 10 µM (CAKI-1): -66.1%; growth at 10 µM (ACHN): -24%
Cc1ccc(S(=O)(=O)N2C/C(=C\c3cc(F)cc(F)c3)C(=O)/C(=C/c3cc(F)cc(F)c3)C2)cc1,7.23,-44,-31.4,-65,-84,-77,-96,-87,-68,-75,-98,-97,-41.6,-43,-79,-82,-78,-35,-73,-84,growth at 10 µM (NCI-H460): -53%; growth at 10 µM (NCI-H322M): 25%; growth at 10 µM (NCI-H23): -33%; growth at 10 µM (HOP-62): -60%; growth at 10 µM (SR): -21%; growth at 10 µM [9]: -17%; growth at 10 µM (HL-60(TB)): -14%; growth at 10 µM (K562): -19%; growth at 10 µM (CCRF-CEM): -23%; growth at 10 µM (MDA-MB-468): -73%; growth at 10 µM [10]: 8%; growth at 10 µM (MCF7): -75.4%; growth at 10 µM (PC-3): -60.3%; growth at 10 µM (SN12C): -86%; growth at 10 µM [11]: -88%; growth at 10 µM (CAKI-1): -25%; growth at 10 µM (ACHN): -91.4%
